# Data: patent US6440979B1, “Aryl isoguanines” (Euro-Celtique, S.A., priority 1994, dated 2002)
# Read-outs that look alike come from different tables or passages of the source.
# Assays:
# [1] = molecular target: T1, Type V PDE isolated from platelets (Homo sapiens, UniProt O76074); assay: Type V PDE inhibition, hydrolysis of [3H]-cyclic GMP; assay type: biochemical; conditions: cyclic GMP 0.2 uM; 2.5% DMSO
# T1 construct: Fractions that contain PDE V are pooled and dialyzed overnight; from tissue
# Protocol: The Type V PDE is isolated using a procedure similar to that previously described by Weishaar et al., Hypertension 15:528, (1990). Briefly, 1-2 units of platelets are suspended in an equal volume of buffer A (20 mM Tris-HCl, pH 7.5, containing 2 mM magnesium acetate, 1 mM dithiothreitol, and 5 mM Na2EDTA) using a polytron. The proteinase inhibitor phenylmethylsulfonyl fluoride (PMSF) are also included in this buffer at a final concentration of 200 uM. This and all subsequent procedures are performed at 0-4° C. The homogenate is then centrifuges at 100,000×g for 60 minutes. The supernatant is then removed and filtered through four layers of gauze and applied to a DEAE-Trisacryl M column. The column is washed with several bed volumes of buffer B (20 mM Tris-HCl, pH 7.5, containing 2 mM magnesium acetate, 1 mM diothiothreitol, and 200 uM PMSF) and eluted by two successive linear NaCl gradients (0.05-0.15 M, 300 ml total; 0.15-0.40 M, 200 ml total). Five ml fractions are collected and assayed for cyclic AMP and cyclic GMP PDE activity. Fractions that contain PDE V are pooled and dialyzed overnight against 4 L of buffer C (20 mm Tris-HCl, pH 7.5, containing 2 mM magnesium acetate and proteinase inhibitors). The dialyzed PDE V is then concentrated to 10% of the original volume, diluted to 50% with ethylene glycol monoethyl ether and stored at −20° C. PDE V can typically be retained for up to four weeks with little or no loss of activity.
# Enzyme activity are assessed by measuring the hydrolysis of [^3H]-cyclic […], as described by Thompson et al. (Thompson, W. J., Teraski, W. L., Epstein, P. N., Strada, S. J.: Adv. Cyclic Nucleotide Res. 10:69, 1979). The cyclic GMP concentration used in this assay is 0.2 uM, which approximates to the Km value. Protein concentration is adjusted to ensure that no more than 15% of the available substrate is hydrolyzed during the incubation period.
# All test compounds are dissolved in dimethyl sulfoxide (final concentration of 2.5%). […] The reference Type V PDE inhibitor zaprinast is evaluated with each assay.
# (§1) The compounds are tested over concentration range: 0.1, 1, 10, 100 uM (n=1), and IC50 determinations are made using 5 appropriate concentrations (n=2).
# [2] = molecular target: T2, Type III PDE isolated from human platelets (Homo sapiens, UniProt Q14432); assay: Type III PDE inhibition, hydrolysis of [3H]-cyclic AMP; assay type: biochemical
# T2 construct: Fractions containing PDE III activity are pooled and dialyzed overnight; from tissue; host or cells: human platelets (100,000 x g supernatant, DEAE-Trisacryl M fraction)
# T2 sequence (Q14432 whole entry): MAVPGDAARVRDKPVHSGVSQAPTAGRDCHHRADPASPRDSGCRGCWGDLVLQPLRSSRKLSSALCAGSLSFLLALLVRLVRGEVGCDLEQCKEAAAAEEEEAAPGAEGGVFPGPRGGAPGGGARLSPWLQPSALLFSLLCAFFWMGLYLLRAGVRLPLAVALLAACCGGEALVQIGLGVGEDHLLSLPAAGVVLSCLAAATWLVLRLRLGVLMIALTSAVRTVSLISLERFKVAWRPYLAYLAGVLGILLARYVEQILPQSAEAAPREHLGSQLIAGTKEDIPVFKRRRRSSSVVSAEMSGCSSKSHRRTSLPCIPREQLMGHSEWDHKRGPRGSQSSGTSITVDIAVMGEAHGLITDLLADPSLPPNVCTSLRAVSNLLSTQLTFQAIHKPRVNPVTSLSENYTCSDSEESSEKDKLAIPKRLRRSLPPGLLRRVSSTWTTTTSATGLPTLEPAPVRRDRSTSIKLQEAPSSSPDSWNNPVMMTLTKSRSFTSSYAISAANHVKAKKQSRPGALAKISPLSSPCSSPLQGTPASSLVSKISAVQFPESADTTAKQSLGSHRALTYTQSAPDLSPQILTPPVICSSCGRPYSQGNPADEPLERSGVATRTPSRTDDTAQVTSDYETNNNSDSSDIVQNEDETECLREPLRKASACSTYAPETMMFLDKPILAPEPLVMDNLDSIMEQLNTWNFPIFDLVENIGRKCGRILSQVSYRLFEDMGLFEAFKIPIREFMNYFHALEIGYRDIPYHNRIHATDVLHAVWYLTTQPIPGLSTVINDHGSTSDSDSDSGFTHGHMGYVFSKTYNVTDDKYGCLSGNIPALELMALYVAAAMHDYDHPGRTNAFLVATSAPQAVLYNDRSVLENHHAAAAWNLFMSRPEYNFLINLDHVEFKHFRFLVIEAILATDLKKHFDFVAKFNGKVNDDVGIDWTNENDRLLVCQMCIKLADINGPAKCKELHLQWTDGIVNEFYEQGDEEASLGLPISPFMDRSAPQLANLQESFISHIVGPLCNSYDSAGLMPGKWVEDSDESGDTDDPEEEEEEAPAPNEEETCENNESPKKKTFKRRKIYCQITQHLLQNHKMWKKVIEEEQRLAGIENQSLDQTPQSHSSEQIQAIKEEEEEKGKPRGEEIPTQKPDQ
# Protocol: The Type III PDE is isolated from human platelets using a procedure similar to that previously described by Weishaar, R. E. et al., Biochem. Pharmacol., 35:787, 1986. Briefly, 1-2 units of platelets are suspended in an equal volume of buffer (20 mM Tris-HCl, pH 7.5, containing 2 mM magnesium acetate, 1 mM dithiothreitol, and 5 mM Na2 EDTA). The proteinase inhibitor phenylmethyl-sulfonyl fluoride (PMSF) is also included in this buffer at a final concentration of 200 μM. The suspension is homogenized using a polytron and the homogenate centrifuged at 100,000×g for 60 minutes. This and all subsequent procedures are performed at 0-4° C. The supernatant is then filtered through four layers of gauze and applied to a DEAE-Trisacryl M column, previously equilibrated with buffer B (20 mM Tris-HCl, pH 7.5, containing 1 mM magnesium acetate, 1 mM dithiothreitol and 200 μM PMSF). After application of the sample, the column is washed with several bed volumes of buffer B, after which the different forms of PDE are eluted from the column using two successive linear NaCl gradients (0.05-0.15 M, 300 ml total; 0.15-0.40 Ma 200 ml total); Five ml fractions are collected and assayed for cyclic AMP and cyclic GMP PDE activity., Fractions containing PDE III activity are pooled and dialyzed overnight against 4 L of buffer B. The dialyzed PDE III is then concentrated to 10% of the original volume, diluted to 50% with ethylene glycol monoethyl ether and stored at −20° C. PDE III can typically be retained for up to four weeks with little or no loss of activity.
# (§2) Enzyme activity is assessed by measuring the hydrolysis of [(^3H]-cyclic AMP, as described by Thompson, W. J. et al., Adv. Cyclic Nucleotide Res. 10:69, 1979. The cyclic AMP concentration used in this assay is 0.2 μM, which approximates to the Km value. Protein concentration is adjusted to ensure that no more than 15% of the available substrate is hydrolyzed during the incubation period.
# (§3) All test compounds are dissolved in dimethyl sulfoxide (final concentration of 2.5%). This concentration of dimethyl sulfoxide inhibits enzyme activity by approximately 10%.
# as §1
# [3] = test system: PDE IV isolated from bovine tracheal smooth muscle; assay: Type IV PDE inhibition, hydrolysis of [3H]-cyclic AMP; assay type: biochemical; conditions: cyclic AMP 0.2 μM; 2.5% DMSO
# Source text: The PDE IV inhibitory compounds of the present invention may be examined for their PDE IV inhibitory effects via the techniques set forth in the following examples, wherein the ability of the compounds to inhibit PDE IV isolated from bovine tracheal smooth muscle is set forth.
# The Type IV PDE is isolated from bovine tracheal smooth muscle using a procedure similar to that previously described by Silver, P. J. et al., Eur. J. Pharmacol. 150:85,1988. Briefly, smooth muscle from bovine trachea is minced and homogenized using a polytron in 10 volumes of an extraction buffer containing 10 mm Tris-acetate (pH 7.5), 2 mM magnesium chloride, 1 mM dithiothreitol and 2,000 units/ml of aprotinin. This and all subsequent procedures are performed at 0-4° C. The homogenate is sonicated and then centrifuged at 48,000×g for 30 minutes. The resulting supernatant is applied to a DEAE Trisacryl M column previously equilibrated with sodium acetate and dithiothreitol. After applications of the sample, the column is washed with sodium acetate/dithiothreitol, after which the different forms of PDE are eluted from the column using a linear Tris-HCl/NaCl gradient. Fractions containing Type IV PDE are collected, dialyzed and concentrated to 14% of the original volume. The concentrated fractions are diluted to 50% with ethylene glycol and stored at −20° C.
# as §2, with “[^3H]-cyclic” for “[(^3H]-cyclic”, “approximates” for “approximates to”
# as §3, §1
# [4] = cyclic AMP 0.2 μM, 2.5% DMSO, read-out: PDE ACTIVITY IC50 PDE III
Compound,melting point,IC50 [1],"IC50 [2, 4]",IC50 ([2]; read-out: IC50 for PDE III inhibition),IC50 [3]
"COc1ccc(Cn2c(=O)[nH]c(=S)c3[nH]c(C(C)C)nc32)cc1OC1CCCC1 (hydrate or solvate) [Ex. 1, 3-(3-Cyclopentyloxy-4-methoxy-benzyl)-8-isopropyl-6-thioxanthine]",192 to 193 °C,–,–,–,–
"CC(C)c1nc2c([nH]1)c(=S)[nH]c(=O)n2Cc1ccncc1 [Ex. 3, 8-Isopropyl-3-(4-picolyl)-6-thioxanthine]",310 to 314 °C (dec.),–,215 µM,–,18.2 µM
"CC(C)c1nc2c([nH]1)c(=S)[nH]c(=O)n2Cc1cccc(Cl)c1 [Ex. 4, 3-(3-Chlorobenzyl)-8-isopropyl-6-thioxanthine]",218 to 220 °C,0.7 µM,44 µM,–,4.1 µM
"CC(C)c1nc2c([nH]1)c(=S)[nH]c(=O)n2Cc1ccc(Cl)cc1 [Ex. 5a, 3-(4-Chlorobenzyl)-8-isopropyl-6-thioxanthine]",–,2 µM,29 µM,–,8.6 µM
"CCn1c(=O)[nH]c(=S)c2[nH]c(Cc3ccc(OC)c(OC4CCCC4)c3)nc21 [Ex. 8, 8-(3-cyclopentyloxy-4-methoxybenzyl)-3-ethyl-6-thio-xanthine]",195 to 197 °C,23.9 µM,28.2 µM,–,4 µM
"CCCn1c(=O)[nH]c(=S)c2[nH]c(Cc3ccc4ccccc4c3)nc21 [Ex. 10, 8-(2-naphthylmethyl)-3-propyl-6-thio-xanthine]",220 to 223 °C,3.8 µM,2.7 µM,–,2.8 µM
"COc1ccc(C2CNC(=O)C2)cc1OC1CCCC1 (centres unmarked) [Rolipram, reference compound]",–,–,790 µM,–,2.6 µM
"CCNc1nc(=O)n(Cc2ccc(OC)c(OC3CCCC3)c2)c2nc(C(C)C)[nH]c12 [compound 12, 3-(3-Cyclopentyloxy-4-methoxy-benzyl)-N^6-ethyl-8-isopropyl-isoguanine]",110 to 115 °C,–,–,–,–

# Next, values leading:
melting point,IC50 [1],"IC50 [2, 4]",IC50 ([2]; read-out: IC50 for PDE III inhibition),IC50 [3],Compound
–,25.7 µM,25 µM,~25 µM,–,"COc1ccc(Cn2c(=O)[nH]c(=S)c3[nH]c(C(C)C)nc32)cc1OC1CCCC1 [Ex. 1, 3-(3-Cyclopentyloxy-4-methoxy-benzyl)-8-isopropyl-6-thioxanthine]"
313 to 317 °C,–,25 µM,–,78 µM,"O=c1[nH]c(=S)c2[nH]cnc2n1Cc1ccc(Cl)cc1 [Ex. 2, 3-(4-Chlorobenzyl)-6-thioxanthine]"
–,0.5 µM,317 µM,–,9.4 µM,"CCNc1nc(=O)n(Cc2ccc(Cl)cc2)c2nc(C(C)C)[nH]c12 [Ex. 5b, 3-(4-Chlorobenzyl)-N^6-ethyl-8-isopropyl-isoguanine]"
208 to 210 °C,–,492 µM,–,24 µM,"CCCNc1nc(=O)n(CC2CC2)c2nc(C(C)C)[nH]c12 [Ex. 6, 3-Cyclopropylmethyl-8-isopropyl-N^6-propyl-isoguanine]"
–,–,207 µM,–,51 µM,"CCNc1nc(=O)n(CC)c2nc(C3CC3)[nH]c12 [Ex. 7, 8-Cyclopropyl-3, N^6-diethyl-isoguanine]"
237 to 239 °C,–,23.6 µM,–,8.5 µM,"CCCn1c(=O)[nH]c(=S)c2[nH]c(Cc3ccc(OC)c(OC)c3)nc21 [Ex. 9, 8-(3,4-dimethoxybenzyl)-3-propyl-6-thio-xanthine]"
–,65.4 µM,311 µM,–,–,"CC(C)c1nc2c([nH]1)c(=S)[nH]c(=O)n2-c1cccc(Cl)c1 [Ex. 11, 3-(3-Chlorophenyl)-8-isopropyl-6-thioxanthine]"
